Our source for the MEC and IC50 values is patent US20170233413A1, “SUBSTITUTED ANNULATED PYRIMIDINES AND USE THEREOF” (Bayer Pharma Aktiengesellschaft, priority 2014, published 2017).

For assay [1], the target named is T1, recombinant guanylate cyclase reporter cell line (Rattus norvegicus, UniProt P19686+P20595).
T1 construct: expressed in transfected cells
T1 sequence (P19686 1-690): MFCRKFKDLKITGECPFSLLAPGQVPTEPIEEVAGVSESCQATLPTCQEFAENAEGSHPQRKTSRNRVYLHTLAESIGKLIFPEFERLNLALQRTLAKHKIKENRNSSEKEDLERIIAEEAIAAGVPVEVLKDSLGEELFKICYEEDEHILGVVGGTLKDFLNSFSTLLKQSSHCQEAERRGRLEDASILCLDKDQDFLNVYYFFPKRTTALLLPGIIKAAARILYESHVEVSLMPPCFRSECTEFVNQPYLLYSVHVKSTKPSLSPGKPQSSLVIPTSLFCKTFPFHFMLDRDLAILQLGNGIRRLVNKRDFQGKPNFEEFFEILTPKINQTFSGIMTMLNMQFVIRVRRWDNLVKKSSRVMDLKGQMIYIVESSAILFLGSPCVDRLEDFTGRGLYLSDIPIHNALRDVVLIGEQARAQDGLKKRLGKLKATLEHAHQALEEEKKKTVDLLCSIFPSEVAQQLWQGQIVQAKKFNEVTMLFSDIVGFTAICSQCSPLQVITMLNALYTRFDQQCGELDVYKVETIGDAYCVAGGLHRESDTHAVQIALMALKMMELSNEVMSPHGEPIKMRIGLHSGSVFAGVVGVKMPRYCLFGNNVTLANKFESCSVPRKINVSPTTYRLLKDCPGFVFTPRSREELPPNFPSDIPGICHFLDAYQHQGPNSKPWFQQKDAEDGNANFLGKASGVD
T1 sequence (P20595 1-619): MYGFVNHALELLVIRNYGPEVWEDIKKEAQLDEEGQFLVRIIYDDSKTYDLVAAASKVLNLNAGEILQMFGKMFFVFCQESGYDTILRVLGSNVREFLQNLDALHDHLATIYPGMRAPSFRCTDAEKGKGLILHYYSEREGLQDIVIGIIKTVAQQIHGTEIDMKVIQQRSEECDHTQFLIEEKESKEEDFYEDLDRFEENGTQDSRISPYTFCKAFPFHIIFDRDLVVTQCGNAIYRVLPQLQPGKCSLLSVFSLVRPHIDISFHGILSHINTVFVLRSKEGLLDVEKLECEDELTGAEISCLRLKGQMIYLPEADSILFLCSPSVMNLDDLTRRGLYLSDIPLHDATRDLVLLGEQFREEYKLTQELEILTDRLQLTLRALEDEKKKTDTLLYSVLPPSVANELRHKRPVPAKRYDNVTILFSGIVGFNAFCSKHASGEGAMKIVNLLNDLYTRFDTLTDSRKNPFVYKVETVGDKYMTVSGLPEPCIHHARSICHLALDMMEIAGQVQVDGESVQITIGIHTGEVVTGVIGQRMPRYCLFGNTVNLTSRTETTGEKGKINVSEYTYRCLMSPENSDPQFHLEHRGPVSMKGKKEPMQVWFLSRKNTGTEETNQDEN
Briefly: Effect on a recombinant guanylate cyclase reporter cell line. The class given is cell-based. Conditions: MEC = minimum effective concentration; in some cases means of individual determinations. As to the method:
B-2. Effect on a Recombinant Guanylate Cyclase Reporter Cell Line
The cellular activity of the compounds of the invention is determined using a recombinant guanylate cyclase reporter cell line, as described in F. Wunder et al., Anal. Biochem. 2005, 339, 104-112. Representative values (MEC=minimum effective concentration) for the compounds of the invention are shown in the table below (Table 1B; in some cases as means of individual determinations): […]

In assay [2] the target is T2, human phosphodiesterase 5 (PDE 5) (Homo sapiens, UniProt O76074).
T2 construct: PDE 5 preparations are obtained from human platelets by disruption; from tissue; host or cells: human platelets
Briefly: Inhibition of human phosphodiesterase 5 (PDE 5). The format is biochemical. Conditions: PDE 5 preparation from human platelets; in some cases means of individual determinations. The method, then: B-3. Inhibition of Human Phosphodiesterase 5 (PDE 5)
PDE 5 preparations are obtained from human platelets by disruption (Microfluidizer®, 800 bar, 3 passes), followed by centrifugation (75 000 g, 60 min, 4° C.) and ion exchange chromatography of the supernatant on a Mono Q 10/10 column (linear sodium chloride gradient, elution with a 0.2-0.3M solution of sodium chloride in buffer (20 mM Hepes pH 7.2, 2 mM magnesium chloride). Fractions having PDE 5 activity are combined (PDE 5 preparation) and stored at −80° C.
To determine their in vitro action on human PDE 5, the test substances are dissolved in 100% DMSO and serially diluted. Typically, dilution series (1:3) from 200 μM to 0.091 μM are prepared (resulting final concentrations in the test: 4 μM to 0.0018 μM). In each case 2 μl of the diluted substance solutions are placed into the wells of microtitre plates (Isoplate-96/200W; Perkin Elmer). Subsequently, 50 μl of a dilution of the above-described PDE 5 preparation are added. The dilution of the PDE 5 preparation is chosen such that during the later incubation less than 70% of the substrate are converted (typical dilution: 1:100; dilution buffer: 50 mM tris/hydrochloric acid pH 7.5, 8.3 mM magnesium chloride, 1.7 mM EDTA, 0.2% BSA). The substrate, [8-^3H] cyclic guanosine-3′,5′-monophosphate (1 μCi/μl; Perkin Elmer), is diluted 1:2000 with assay buffer (50 mM tris/hydrochloric acid pH 7.5, 8.3 mM magnesium chloride, 1.7 mM EDTA) to a concentration of 0.0005 μCi/μl. By addition of 50 μl (0.025 μCi) of the diluted substrate, the enzyme reaction is finally started. The test mixtures are incubated at room temperature for 60 min and the reaction is stopped by adding 25 μl of a suspension of 18 mg/ml yttrium scintillation proximity beads in water (phosphodiesterase beads for SPA assays, RPNQ 0150, Perkin Elmer). The microtitre plates are sealed with a film and left to stand at room temperature for 60 min. Subsequently, the plates are analysed for 30 s per well in a Microbeta scintillation counter (Perkin Elmer). IC50 values are determined using the graphic plot of the substance concentration against percentage PDE 5 inhibition.

Consider `CC1(C)C(=O)Nc2nc(-c3nn(Cc4ccccc4F)c4ncccc34)nc(C(=O)NC3CCOCC3)c21` [Example 98, 2-[1-(2-fluorobenzyl)-1H-pyrazolo[3,4-b]pyridin-3-yl]-5,5-dimethyl-6-oxo-N-(tetrahydro-2H-pyran-4-yl)-6,7-dihydro-5H-pyrrolo[2,3-d]pyrimidine-4-carboxamide], for which the MEC in assay [1] is 1 µM. The same compound showed an IC50 in assay [2] of 33 nM.
Regarding `CC1(C)C(=O)Nc2nc(-c3nn(Cc4ccccc4F)c4ncccc34)nc(C(=O)NCc3ccccn3)c21` [Example 117, 2-[1-(2-fluorobenzyl)-1H-pyrazolo[3,4-b]pyridin-3-yl]-5,5-dimethyl-6-oxo-N-(pyridin-2-ylmethyl)-6,7-dihydro-5H-pyrrolo[2,3-d]pyrimidine-4-carboxamide], the MEC in assay [1] is 0.1 µM. In assay [2], this compound registered a 50% inhibitory concentration (IC50) of 25 nM.
With `CCCCCCNC(=O)c1nc(-c2nn(Cc3ccccc3F)c3ncccc23)nc2c1C(C)(C)C(=O)N2` [Example 124, 2-[1-(2-fluorobenzyl)-1H-pyrazolo[3,4-b]pyridin-3-yl]-N-hexyl-5,5-dimethyl-6-oxo-6,7-dihydro-5H-pyrrolo[2,3-d]pyrimidine-4-carboxamide], in assay [1], the MEC worked out at 1 µM.
As for `CC(C)(C)CNC(=O)c1nc(-c2nn(Cc3ccccc3F)c3ncccc23)nc2c1C(C)(C)C(=O)N2` [Example 102, N-(2,2-dimethylpropyl)-2-[1-(2-fluorobenzyl)-1H-pyrazolo[3,4-b]pyridin-3-yl]-5,5-dimethyl-6-oxo-6,7-dihydro-5H-pyrrolo[2,3-d]pyrimidine-4-carboxamide], the MEC in assay [1] was 0.3 µM.
Consider `CC1(C)C(=O)Nc2nc(-c3nn(Cc4ccccc4F)c4ncccc34)nc(C(=O)Nc3nncs3)c21` [Example 93, 2-[1-(2-fluorobenzyl)-1H-pyrazolo[3,4-b]pyridin-3-yl]-5,5-dimethyl-6-oxo-N-(1,3,4-thiadiazol-2-yl)-6,7-dihydro-5H-pyrrolo[2,3-d]pyrimidine-4-carboxamide], for which, in assay [1], the MEC was 0.1 µM. In assay [2], this compound displayed an IC50 of 55 nM.
For the compound `CC(N)(CNC(=O)c1nc(-c2nn(Cc3ncccc3F)c3ncc(F)cc23)nc2c1C(C)(C)C(=O)N2)CC(F)F` (single isomer, unassigned; enantiomer a) [Example 55, ent-N-(2-Amino-4,4-difluoro-2-methylbutyl)-2-{5-fluoro-1-[(3-fluoropyridin-2-yl)methyl]-1H-pyrazolo[3,4-b]pyridin-3-yl}-5,5-dimethyl-6-oxo-6,7-dihydro-5H-pyrrolo[2,3-d]pyrimidine-4-carboxamide (enantiomer A)], in assay [1], the MEC turned out to be 3 µM. The same compound yielded an IC50 in assay [2] of 190 nM.
For `CC1(C)C(=O)Nc2nc(-c3nn(Cc4ccccc4F)c4ncccc34)nc(C(=O)Nc3cc(F)cc(F)c3)c21` [Example 76, N-(3,5-difluorophenyl)-2-[1-(2-fluorobenzyl)-1H-pyrazolo[3,4-b]pyridin-3-yl]-5,5-dimethyl-6-oxo-6,7-dihydro-5H-pyrrolo[2,3-d]pyrimidine-4-carboxamide] the same measures were 1 µM and 60 nM.
For `Cc1nc2c(cc1F)c(-c1nc3c(c(C(N)=O)n1)C(C)(C(F)(F)F)C(=O)N3)nn2Cc1cccc(F)c1F` (racemic) [Example 9, rac-2-[1-(2,3-difluorobenzyl)-5-fluoro-6-methyl-1H-pyrazolo[3,4-b]pyridin-3-yl]-5-methyl-6-oxo-5-(trifluoromethyl)-6,7-dihydro-5H-pyrrolo[2,3-d]pyrimidine-4-carboxamide] the same measures were 0.3 µM and 58 nM.
`CN(CCC(N)=O)C(=O)c1nc(-c2nn(Cc3ccccc3F)c3ncccc23)nc2c1C(C)(C)C(=O)N2` [Example 110, N-(3-amino-3-oxopropyl)-2-[1-(2-fluorobenzyl)-1H-pyrazolo[3,4-b]pyridin-3-yl]-N,5,5-trimethyl-6-oxo-6,7-dihydro-5H-pyrrolo[2,3-d]pyrimidine-4-carboxamide]: in assay [1], the MEC is 1 µM.
The same measure, in the same setting: the value for `Cc1cnccc1NC(=O)c1nc(-c2nn(Cc3ccccc3F)c3ncccc23)nc2c1C(C)(C)C(=O)N2` [Example 101, 2-[1-(2-fluorobenzyl)-1H-pyrazolo[3,4-b]pyridin-3-yl]-5,5-dimethyl-N-(3-methylpyridin-4-yl)-6-oxo-6,7-dihydro-5H-pyrrolo[2,3-d]pyrimidine-4-carboxamide] was 0.3 µM; that for `Cc1cc(NC(=O)c2nc(-c3nn(Cc4ccccc4F)c4ncccc34)nc3c2C(C)(C)C(=O)N3)ccn1` [Example 106, 2-[1-(2-fluorobenzyl)-1H-pyrazolo[3,4-b]pyridin-3-yl]-5,5-dimethyl-N-(2-methylpyridin-4-yl)-6-oxo-6,7-dihydro-5H-pyrrolo[2,3-d]pyrimidine-4-carboxamide] was 0.3 µM; that for `CC(C)(C)CCNC(=O)c1nc(-c2nn(Cc3ccccc3F)c3ncccc23)nc2c1C(C)(C)C(=O)N2` [Example 135, N-(3,3-dimethylbutyl)-2-[1-(2-fluorobenzyl)-1H-pyrazolo[3,4-b]pyridin-3-yl]-5,5-dimethyl-6-oxo-6,7-dihydro-5H-pyrrolo[2,3-d]pyrimidine-4-carboxamide] was 1 µM.
Still for that read-out and setting: as for `CC1(C)C(=O)Nc2nc(-c3nn(Cc4ccccc4F)c4ncccc34)nc(C(=O)Nc3ccncc3)c21` [Example 116, 2-[1-(2-fluorobenzyl)-1H-pyrazolo[3,4-b]pyridin-3-yl]-5,5-dimethyl-6-oxo-N-(pyridin-4-yl)-6,7-dihydro-5H-pyrrolo[2,3-d]pyrimidine-4-carboxamide], the figure is 1 µM.
The same measure, in the same setting: as for `CC1(C)C(=O)Nc2nc(-c3nn(Cc4ccccc4F)c4ncccc34)nc(C(=O)NCC(N)=O)c21` [Example 75, N-(2-amino-2-oxoethyl)-2-[1-(2-fluorobenzyl)-1H-pyrazolo[3,4-b]pyridin-3-yl]-5,5-dimethyl-6-oxo-6,7-dihydro-5H-pyrrolo[2,3-d]pyrimidine-4-carboxamide], the figure is 0.3 µM.
